Experiments:
radish, wild = assay: Test D preemergence; format: in vivo, Raphanus raphanistrum; settings: Preemergence, scale 0 to 100
Procedure, shortened: (§1)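 Visual injury scored 0–100 (0 none, 100 complete control) against controls 14–21 days after treatment in a controlled growth environment. Chemicals were formulated in a non-phytotoxic solvent mixture containing surfactant, applied to silt loam soil preemergence or to 1- to 4-leaf plants postemergence.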

pigweed [1] = assay: Test D postemergence; format: in vivo, Amaranthus retroflexus; settings: scale 0 to 100
Procedure, shortened: as §1

deadnettle [2] = assay: Test D postemergence; format: in vivo, Lamium amplexicaule; settings: scale 0 to 100
Procedure, shortened: as §1

buckwheat, wild = assay: Test D postemergence; format: in vivo, Polygonum convolvulus; settings: scale 0 to 100
Procedure, shortened: as §1

foxtail, green = assay: Test D preemergence; format: in vivo, Setaria viridis; settings: Preemergence, scale 0 to 100
Procedure, shortened: as §1

field violet = assay: Test D postemergence; format: in vivo, Viola arvensis; settings: scale 0 to 100
Procedure, shortened: as §1

mustard, wild = assay: Test D postemergence; format: in vivo, Sinapis arvensis; settings: scale 0 to 100
Procedure, shortened: as §1

canarygrass = assay: Test D postemergence; format: in vivo, Phalaris minor; settings: scale 0 to 100
Procedure, shortened: as §1

deadnettle [3] = assay: Test D preemergence; format: in vivo, Lamium amplexicaule; settings: Preemergence, scale 0 to 100
Procedure, shortened: as §1

barley, spring [4] = assay: Test D preemergence; format: in vivo, Hordeum vulgare; settings: Preemergence, scale 0 to 100
Procedure, shortened: as §1

barley, winter [5] = assay: Test D preemergence; format: in vivo, Hordeum vulgare; settings: Preemergence, scale 0 to 100
Procedure, shortened: as §1

barley, spring [6] = assay: Test D postemergence; format: in vivo, Hordeum vulgare; settings: scale 0 to 100
Procedure, shortened: as §1

barley, winter [7] = assay: Test D postemergence; format: in vivo, Hordeum vulgare; settings: scale 0 to 100
Procedure, shortened: as §1

pigweed [8] = assay: Test D preemergence; format: in vivo, Amaranthus retroflexus; settings: Preemergence, scale 0 to 100
Procedure, shortened: as §1

chamomile = assay: Test D preemergence; format: in vivo, Matricaria inodora; settings: Preemergence, scale 0 to 100
Procedure, shortened: as §1

bromegrass, downy = assay: Test D preemergence; format: in vivo, Bromus tectorum; settings: Preemergence, scale 0 to 100
Procedure, shortened: as §1

lambsquarters = assay: Test D preemergence; format: in vivo, Chenopodium album; settings: Preemergence, scale 0 to 100
Procedure, shortened: as §1

oat, wild = assay: Test D postemergence; format: in vivo, Avena fatua; settings: scale 0 to 100
Procedure, shortened: as §1

wheat, spring = assay: Test D preemergence; format: in vivo, Triticum aestivum; settings: Preemergence, scale 0 to 100
Procedure, shortened: as §1

wheat, winter = assay: Test D preemergence; format: in vivo, Triticum aestivum; settings: Preemergence, scale 0 to 100
Procedure, shortened: as §1

## CCc1cc(C(=O)NCC(F)(F)F)nn1Cc1ccnc(SC(F)(F)F)c1 [Compound 214]
radish, wild; 62 g ai/ha
  Plant response rating, Radish, Wild: 100
radish, wild; 125 g ai/ha
  Plant response rating, Radish, Wild: 100
radish, wild; 250 g ai/ha
  Plant response rating, Radish, Wild: 100
Pigweed [1]; Postemergence, 31 g ai/ha
  Pigweed plant response rating: 90
Pigweed [1]; Postemergence, 125 g ai/ha
  Pigweed plant response rating: 90
Pigweed [1]; Postemergence, 250 g ai/ha
  Pigweed plant response rating: 95
Pigweed [1]; postemergence, 62 g ai/ha
  Pigweed plant response rating: 90
Deadnettle [2]; Postemergence, 31 g ai/ha
  Deadnettle plant response rating: 50
Deadnettle [2]; Postemergence, 125 g ai/ha
  Deadnettle plant response rating: 60
Deadnettle [2]; Postemergence, 250 g ai/ha
  Deadnettle plant response rating: 70
Deadnettle [2]; postemergence, 62 g ai/ha
  Deadnettle plant response rating: 50
buckwheat, wild; Postemergence, 31 g ai/ha
  Buckwheat, Wild plant response rating: 70
buckwheat, wild; Postemergence, 125 g ai/ha
  Buckwheat, Wild plant response rating: 70
buckwheat, wild; Postemergence, 250 g ai/ha
  Buckwheat, Wild plant response rating: 80
buckwheat, wild; postemergence, 62 g ai/ha
  Buckwheat, Wild plant response rating: 70
foxtail, green; 62 g ai/ha
  Plant response rating, Foxtail, Green: 100
foxtail, green; 125 g ai/ha
  Plant response rating, Foxtail, Green: 100
foxtail, green; 250 g ai/ha
  Plant response rating, Foxtail, Green: 100
Field violet; Postemergence, 31 g ai/ha
  Field Violet plant response rating: 100
Field violet; Postemergence, 125 g ai/ha
  Field Violet plant response rating: 100
Field violet; Postemergence, 250 g ai/ha
  Field Violet plant response rating: 100
Field violet; postemergence, 62 g ai/ha
  Field Violet plant response rating: 100
mustard, wild; Postemergence, 31 g ai/ha
  Mustard, Wild plant response rating: 70
mustard, wild; Postemergence, 125 g ai/ha
  Mustard, Wild plant response rating: 100
mustard, wild; Postemergence, 250 g ai/ha
  Mustard, Wild plant response rating: 100
mustard, wild; postemergence, 62 g ai/ha
  Mustard, Wild plant response rating: 70
canarygrass; Postemergence, 31 g ai/ha
  Canarygrass plant response rating: 15
canarygrass; Postemergence, 125 g ai/ha
  Canarygrass plant response rating: 15
canarygrass; Postemergence, 250 g ai/ha
  Canarygrass plant response rating: 30
canarygrass; postemergence, 62 g ai/ha
  Canarygrass plant response rating: 15
Deadnettle [3]; 31 g ai/ha
  Plant response rating, Deadnettle: 90
Deadnettle [3]; 62 g ai/ha
  Plant response rating, Deadnettle: 100
Deadnettle [3]; 125 g ai/ha
  Plant response rating, Deadnettle: 100
Deadnettle [3]; 250 g ai/ha
  Plant response rating, Deadnettle: 100
barley, spring [4]; 31 g ai/ha
  Plant response rating, Barley, Spring: 10
barley, spring [4]; 62 g ai/ha
  Plant response rating, Barley, Spring: 40
barley, spring [4]; 125 g ai/ha
  Plant response rating, Barley, Spring: 65
barley, spring [4]; 250 g ai/ha
  Plant response rating, Barley, Spring: 80
barley, winter [5]; 31 g ai/ha
  Plant response rating, Barley, Winter: 15
barley, winter [5]; 62 g ai/ha
  Plant response rating, Barley, Winter: 35
barley, winter [5]; 125 g ai/ha
  Plant response rating, Barley, Winter: 55
barley, winter [5]; 250 g ai/ha
  Plant response rating, Barley, Winter: 65
barley, spring [6]; Postemergence, 31 g ai/ha
  Barley, Spring plant response rating: 15
barley, spring [6]; Postemergence, 125 g ai/ha
  Barley, Spring plant response rating: 20
barley, spring [6]; Postemergence, 250 g ai/ha
  Barley, Spring plant response rating: 40
barley, spring [6]; postemergence, 62 g ai/ha
  Barley, Spring plant response rating: 15
barley, winter [7]; Postemergence, 31 g ai/ha
  Barley, Winter plant response rating: 20
barley, winter [7]; Postemergence, 125 g ai/ha
  Barley, Winter plant response rating: 30
barley, winter [7]; Postemergence, 250 g ai/ha
  Barley, Winter plant response rating: 35
barley, winter [7]; postemergence, 62 g ai/ha
  Barley, Winter plant response rating: 20
Pigweed [8]; 62 g ai/ha
  Plant response rating, Pigweed: 100
Pigweed [8]; 125 g ai/ha
  Plant response rating, Pigweed: 100
Pigweed [8]; 250 g ai/ha
  Plant response rating, Pigweed: 100
chamomile; 31 g ai/ha
  Plant response rating, Chamomile: 50
chamomile; 62 g ai/ha
  Plant response rating, Chamomile: 100
chamomile; 125 g ai/ha
  Plant response rating, Chamomile: 100
chamomile; 250 g ai/ha
  Plant response rating, Chamomile: 100
bromegrass, downy; 31 g ai/ha
  Plant response rating, Bromegrass, Downy: 15
bromegrass, downy; 62 g ai/ha
  Plant response rating, Bromegrass, Downy: 25
bromegrass, downy; 125 g ai/ha
  Plant response rating, Bromegrass, Downy: 35
bromegrass, downy; 250 g ai/ha
  Plant response rating, Bromegrass, Downy: 80
lambsquarters; 62 g ai/ha
  Plant response rating, Lambsquarters: 90
lambsquarters; 125 g ai/ha
  Plant response rating, Lambsquarters: 100
lambsquarters; 250 g ai/ha
  Plant response rating, Lambsquarters: 100
oat, wild; Postemergence, 31 g ai/ha
  Oat, Wild plant response rating: 15
oat, wild; Postemergence, 125 g ai/ha
  Oat, Wild plant response rating: 20
oat, wild; Postemergence, 250 g ai/ha
  Oat, Wild plant response rating: 40
oat, wild; postemergence, 62 g ai/ha
  Oat, Wild plant response rating: 15
wheat, spring; 62 g ai/ha
  Plant response rating, Wheat, Spring: 10
wheat, spring; 125 g ai/ha
  Plant response rating, Wheat, Spring: 40
wheat, spring; 250 g ai/ha
  Plant response rating, Wheat, Spring: 75
wheat, winter; 62 g ai/ha
  Plant response rating, Wheat, Winter: 15
wheat, winter; 125 g ai/ha
  Plant response rating, Wheat, Winter: 55
wheat, winter; 250 g ai/ha
  Plant response rating, Wheat, Winter: 75
